38 compounds from patent US9255110B2 (Hoffmann-La Roche Inc., priority 2010, dated 2016) can be followed below.

Counter-ions that a name gives are not always drawn.

This experiment addresses IRAK-4 (Homo sapiens (Human), UniProt Q9NWZ3). Put plainly: In vitro IRAK-4 kinase assay. Format: biochemical. The settings on record: purified recombinant IRAK-4, 50 uM ATP, 33P peptide phosphorylation. Here is the method:
Purified recombinant IRAK-4 protein was incubated with 250 uM synthetic peptide ([…]) in 30 ul of kinase buffer including (20 mM MOPS pH7.2, 25 mM beta glycerol phosphate, 5 mM EGTA, 1 mM sodium orthovanadate, 1 mM DTT, 50 uM ATP, 20 mM MgCl2, 10 uCi γ-^33P, 0.1% BSA) for the indicated time. For purified recombinant IRAK-1 protein kinase assay, 50 uM ATP was used. A 25 ul aliquot of the reaction mixture was transferred on to p81 phosphocellulose squares (Upstate Biotechnology, Lake Placid, N.Y.). The assay squares were washed three times with 0.75% phosphoric acid and once with acetone. Enzyme activity was measured by determining the bound radioactivity by liquid scintillation counting.

Sequence of IRAK-4 (Q9NWZ3 whole entry, species assumed): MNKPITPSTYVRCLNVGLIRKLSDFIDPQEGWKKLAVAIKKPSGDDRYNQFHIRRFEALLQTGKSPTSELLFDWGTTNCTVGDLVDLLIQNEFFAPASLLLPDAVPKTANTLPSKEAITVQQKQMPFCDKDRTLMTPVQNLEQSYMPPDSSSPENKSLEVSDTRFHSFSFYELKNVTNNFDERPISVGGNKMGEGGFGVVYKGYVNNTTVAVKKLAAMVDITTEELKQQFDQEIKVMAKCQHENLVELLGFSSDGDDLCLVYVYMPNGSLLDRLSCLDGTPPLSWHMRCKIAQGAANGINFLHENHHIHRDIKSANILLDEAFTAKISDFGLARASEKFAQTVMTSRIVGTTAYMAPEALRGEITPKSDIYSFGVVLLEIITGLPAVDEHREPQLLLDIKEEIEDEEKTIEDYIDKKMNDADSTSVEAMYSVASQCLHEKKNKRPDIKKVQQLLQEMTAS

Consider `C=Cc1ccc(OC)c(NC(=O)c2cnn3cccnc23)c1` [Example 143, Pyrazolo[1,5-alpha]pyrimidine-3-carboxylic acid (2-methoxy-5-vinyl-phenyl)-amide], for which the IC50 – broadly, the concentration at which inhibition is half-maximal – stood at 2.75 µM.

With `Cc1ccn2ncc(C(=O)Nc3cc(Cl)ccc3OC3CCC(O)CC3)c2n1` (stereo not drawn) [Example 170, 5-Methyl-pyrazolo[1,5-alpha]pyrimidine-3-carboxylic acid [5-chloro-2-(4-hydroxy-cyclohexyloxy)-phenyl]-amide], the IC50 was found to be 6.56 µM.

Consider `COc1cc(C(=O)NCCCO)ccc1NC(=O)c1csc2cncnc12` [Example 113, Thieno[3,2-d]pyrimidine-7-carboxylic acid [4-(3-hydroxy-propylcarbamoyl)-2-methoxy-phenyl]-amide], for which the IC50 is 0.833 µM.

With `O=C(Nc1cc(Cl)ccc1OCCCO)c1csc2cncnc12` [Example 139, Thieno[3,2-d]pyrimidine-7-carboxylic acid [5-chloro-2-(3-hydroxy-propoxy)-phenyl]-amide], the IC50 stood at 2.45 µM.

Consider `COc1cc(C(=O)NCCO)ccc1NC(=O)c1cnn2cccnc12` [Example 146, Pyrazolo[1,5-alpha]pyrimidine-3-carboxylic acid [4-(2-hydroxy-ethylcarbamoyl)-2-methoxy-phenyl]-amide], for which the IC50 worked out at 2.96 µM.

As for `COCCOc1ccc(Cl)cc1NC(=O)c1cnn2cccnc12` [Example 124, Pyrazolo[1,5-alpha]pyrimidine-3-carboxylic acid [5-chloro-2-(2-methoxy-ethoxy)-phenyl]-amide], the IC50 was found to be 1.71 µM.

For `COC(=O)COc1ccc(Cl)cc1NC(=O)c1cnn2cccnc12` [Example 160, {4-Chloro-2-[(pyrazolo[1,5-alpha]pyrimidine-3-carbonyl)-amino]-phenoxy}-acetic acid methyl ester], the IC50 came out at 4.3 µM.

For `O=C(Nc1cc(Cl)ccc1OCCCCO)c1cnn2cccnc12` [Example 87, Pyrazolo[1,5-alpha]pyrimidine-3-carboxylic acid [5-chloro-2-(4-hydroxy-butoxy)-phenyl]-amide], the IC50 turned out to be 0.437 µM.

Regarding `O=C(Nc1cc(Cl)ccc1CCCCO)c1cnn2cccnc12` [Example 145, Pyrazolo[1,5-alpha]pyrimidine-3-carboxylic acid [5-chloro-2-(4-hydroxy-butyl)-phenyl]-amide], the IC50 turned out to be 2.95 µM.

With `COc1ccc(Cl)cc1NC(=O)c1csc2ccc(NCCO)nc12` [Example 162, 5-(2-Hydroxy-ethylamino)-thieno[3,2-beta]pyridine-3-carboxylic acid (5-chloro-2-methoxy-phenyl)-amide], the IC50 came out at 4.66 µM.

As to `O=C(Nc1cc(Cl)ccc1OC1CCC(O)CC1)c1cnn2cc(CO)cnc12` (stereo not drawn) [Example 133, 6-Hydroxymethyl-pyrazolo[1,5-alpha]pyrimidine-3-carboxylic acid [5-chloro-2-(4-hydroxy-cyclohexyloxy)-phenyl]-amide], the IC50 was found to be 2.25 µM.

Turning to `O=C(Nc1cc(Cl)ccc1-c1ccc(O)cc1)c1cnn2cccnc12` [Example 94, Pyrazolo[1,5-alpha]pyrimidine-3-carboxylic acid (4-chloro-4′-hydroxy-biphenyl-2-yl)-amide], the IC50 amounted to 0.477 µM.

On to `O=C(Nc1cc(Cl)ccc1OC1CCC(CO)C1)c1cnn2cccnc12` (stereo not drawn) [Example 77, Pyrazolo[1,5-alpha]pyrimidine-3-carboxylic acid [5-chloro-2-(3-hydroxymethyl-cyclopentyloxy)-phenyl]-amide], for which the IC50 turned out to be 0.306 µM.

For the compound `O=C(Nc1cc2cccnc2cc1OCCCO)c1csc2cncnc12` [Example 58, Thieno[3,2-d]pyrimidine-7-carboxylic acid [7-(3-hydroxy-propoxy)-quinolin-6-yl]-amide], the IC50 was 0.131 µM.

`CNCC1CCN(c2ccc(Cl)cc2NC(=O)c2csc3cncnc23)CC1` [Example 151, Thieno[3,2-d]pyrimidine-7-carboxylic acid [5-chloro-2-(4-methylaminomethyl-piperidin-1-yl)-phenyl]-amide]: the IC50 was 3.54 µM.

For `COc1ccccc1NC(=O)c1cnn2cccnc12` [Example 171, Pyrazolo[1,5-alpha]pyrimidine-3-carboxylic acid (2-methoxy-phenyl)-amide], the IC50 is 7.34 µM.

`CC[C@@H](CO)Nc1ncc2scc(C(=O)Nc3cc(Cl)ccc3OC)c2n1` [Example 131, 2-(1-Hydroxymethyl-propylamino)-thieno[3,2-d]pyrimidine-7-carboxylic acid (5-chloro-2-methoxy-phenyl)-amide]: the concentration for half-maximal inhibition (IC50) was found to be 2.23 µM.

Take `COc1ccc(NC(=O)c2cnn3cccnc23)c(OC)c1` [Example 158, Pyrazolo[1,5-alpha]pyrimidine-3-carboxylic acid (2,4-dimethoxy-phenyl)-amide]: the IC50 was 4.17 µM.

As to `COc1ccc(NC(C)=O)cc1NC(=O)c1cnn2cccnc12` [Example 173, Pyrazolo[1,5-alpha]pyrimidine-3-carboxylic acid (5-acetylamino-2-methoxy-phenyl)-amide], the IC50 was 7.7 µM.

As for `O=C(Nc1cc2cccnc2cc1OC1CCNCC1)c1cnn2cccnc12` [Example 32, Pyrazolo[1,5-alpha]pyrimidine-3-carboxylic acid [7-(piperidin-4-yloxy)-quinolin-6-yl]-amide hydrochloride], the IC50 amounted to 0.04 µM.

Turning to `O=C(Nc1cc(Cl)ccc1OC1CCNCC1)c1cnn2cccnc12` [Example 92, Pyrazolo[1,5-alpha]pyrimidine-3-carboxylic acid [5-chloro-2-(piperidin-4-yloxy)-phenyl]-amide hydrochloride], the IC50 stood at 0.476 µM.

Consider `NC1CCC(Oc2ccc(Cl)cc2NC(=O)c2csc3cncnc23)CC1` (centres unmarked) [Example 118, Thieno[3,2-d]pyrimidine-7-carboxylic acid [2-(4-amino-cyclohexyloxy)-5-chloro-phenyl]-amide], for which the IC50 was 1.47 µM.

With `CCc1ccc(Cl)cc1NC(=O)c1cnn2cccnc12` [Example 154, Pyrazolo[1,5-alpha]pyrimidine-3-carboxylic acid (5-chloro-2-ethyl-phenyl)-amide], the IC50 worked out at 3.8 µM.

On to `COc1cc(CO)ccc1NC(=O)c1cnn2cccnc12` [Example 177, Pyrazolo[1,5-alpha]pyrimidine-3-carboxylic acid (4-hydroxymethyl-2-methoxy-phenyl)-amide], for which the IC50 worked out at 8.67 µM.

With `COc1cc(-c2ccccc2)ccc1NC(=O)c1cnn2cccnc12` [Example 165, Pyrazolo[1,5-alpha]pyrimidine-3-carboxylic acid (3-methoxy-biphenyl-4-yl)-amide], the IC50 is 5.21 µM.

As to `O=C(Nc1cc(Cl)ccc1N1CCCCC1CO)c1cnn2cccnc12` (stereo not drawn) [Example 164, Pyrazolo[1,5-alpha]pyrimidine-3-carboxylic acid [5-chloro-2-(2-hydroxymethyl-piperidin-1-yl)-phenyl]-amide], the IC50 is 4.85 µM.

For the compound `COc1cc(C(N)=O)ccc1NC(=O)c1cnn2cccnc12` [Example 134, Pyrazolo[1,5-alpha]pyrimidine-3-carboxylic acid (4-carbamoyl-2-methoxy-phenyl)-amide], the IC50 is 2.26 µM.

As for `CN(CCO)c1ccc(Cl)cc1NC(=O)c1cnn2cccnc12` [Example 129, Pyrazolo[1,5-alpha]pyrimidine-3-carboxylic acid {5-chloro-2-[(2-hydroxy-ethyl)-methyl-amino]-phenyl}-amide], the IC50 was found to be 2.2 µM.

For the compound `COc1cc2ccccc2cc1NC(=O)c1cnn2cccnc12` [Example 104, Pyrazolo[1,5-alpha]pyrimidine-3-carboxylic acid (3-methoxy-naphthalen-2-yl)-amide], the IC50 was 0.613 µM.

`O=C(Nc1ccccc1-c1ccccc1)c1cnn2cccnc12` [Example 116, Pyrazolo[1,5-alpha]pyrimidine-3-carboxylic acid biphenyl-2-ylamide]: the IC50 came out at 1.22 µM.

With `COc1ccc(Cl)cc1NC(=O)c1csc2cnc(NCCO)nc12` [Example 132, 2-(2-Hydroxy-ethylamino)-thieno[3,2-d]pyrimidine-7-carboxylic acid (5-chloro-2-methoxy-phenyl)-amide], the IC50 amounted to 2.24 µM.

For the compound `COc1cc(C(=O)NCCO)ccc1NC(=O)c1csc2cncnc12` [Example 122, Thieno[3,2-d]pyrimidine-7-carboxylic acid [4-(2-hydroxy-ethylcarbamoyl)-2-methoxy-phenyl]-amide], the IC50 came to 1.62 µM.

As to `CC(O)CCOc1cc2ncccc2cc1NC(=O)c1csc2cncnc12` (centres unmarked) [Example 28], the IC50 came out at 0.033 µM.

Regarding `O=C(Nc1cc(Cl)ccc1-c1cccc(O)c1)c1cnn2cccnc12` [Example 125, Pyrazolo[1,5-alpha]pyrimidine-3-carboxylic acid (4-chloro-3′-hydroxy-biphenyl-2-yl)-amide], the IC50 was found to be 2.05 µM.

As to “2-(cis-2-amino-cyclohexylamino)-thieno[3,2-d]pyrimidine-7-carboxylic acid (5,6-dimethoxy-pyridin-2-yl)-amide [Example 27]”, the IC50 worked out at 0.031 µM.

Regarding `O=C(Nc1cc(Cl)ccc1N1CCC(O)C1)c1cnn2cccnc12` (stereo not drawn) [Example 95, Pyrazolo[1,5-alpha]pyrimidine-3-carboxylic acid [5-chloro-2-(3-hydroxy-pyrrolidin-1-yl)-phenyl]-amide], the IC50 was determined as 0.493 µM.

`COc1cc(C(=O)Nc2ccccc2)c(Cl)cc1NC(=O)c1cnn2cccnc12` [Example 174, Pyrazolo[1,5-alpha]pyrimidine-3-carboxylic acid (5-chloro-2-methoxy-4-phenylcarbamoyl-phenyl)-amide]: the IC50 was 7.92 µM.

As to `NCC1CCN(c2ccc(Cl)cc2NC(=O)c2cnn3cccnc23)C1` (stereo not drawn) [Example 101, Pyrazolo[1,5-alpha]pyrimidine-3-carboxylic acid [2-(3-aminomethyl-pyrrolidin-1-yl)-5-chloro-phenyl]-amide], the IC50 is 0.564 µM.
